In patent US4904672A, “Derivatives of 3-hydroxyazabenzo[b]thiophene useful as 5-lipoxygenase inhibitors” (Merck & Co., Inc., priority 1988, dated 1990):

Target: T1, PMN 5-lipoxygenase (Rattus norvegicus, UniProt P12527)
T1 sequence (P12527 1-673): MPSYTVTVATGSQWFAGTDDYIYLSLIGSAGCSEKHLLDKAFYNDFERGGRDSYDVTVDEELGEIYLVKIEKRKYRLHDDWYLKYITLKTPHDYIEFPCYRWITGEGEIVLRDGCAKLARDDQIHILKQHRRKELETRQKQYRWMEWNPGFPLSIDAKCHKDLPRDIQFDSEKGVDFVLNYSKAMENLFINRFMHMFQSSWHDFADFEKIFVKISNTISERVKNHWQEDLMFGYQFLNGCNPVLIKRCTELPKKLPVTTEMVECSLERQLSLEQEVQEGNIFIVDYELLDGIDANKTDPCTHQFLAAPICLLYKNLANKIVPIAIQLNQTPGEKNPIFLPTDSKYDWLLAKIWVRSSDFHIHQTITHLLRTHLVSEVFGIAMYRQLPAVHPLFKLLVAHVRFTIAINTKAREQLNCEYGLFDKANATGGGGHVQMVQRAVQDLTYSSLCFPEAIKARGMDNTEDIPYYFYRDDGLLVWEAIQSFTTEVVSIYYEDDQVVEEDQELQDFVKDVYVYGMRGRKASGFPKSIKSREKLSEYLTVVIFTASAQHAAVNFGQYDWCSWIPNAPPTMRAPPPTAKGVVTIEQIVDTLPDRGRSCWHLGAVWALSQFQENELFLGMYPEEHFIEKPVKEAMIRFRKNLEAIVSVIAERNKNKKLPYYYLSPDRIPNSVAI
Assay: Inhibition of PMN 5-lipoxygenase in the rat (LTB4 by RIA, A23187-stimulated PMN)
Type: cell-based, rat (male Sprague-Dawley)
Settings: for inhibition at 30 µg/mL: dose 0.03 mg/ml; for inhibition at 10 µg/mL: dose 0.01 mg/ml; for inhibition at 1000 µg/mL: dose 1 mg/ml
Method: 2. Inhibition of PMN 5-lipoxygenase in the rat Methods
Male Sprague-Dawley rates under ether anesthesia were injected i.p. with 8 mls of 12% aqueous sodium caseinate. After 15-24 hours the animals were sacrificed with CO2 and the peritoneal cavities were lavaged with Eagles MEM with Earles salts and containing L-glutamine and 30 mM HEPES. The pH was adjusted to 7.4. The lavage fluid was centrifuged for 5 minutes at 350×g at room temperature. The cells were resuspended in fresh medium and filtered through lens paper. The cells were pelleted again and reconstituted to concentration of 1×10^7 cells/ml with fresh medium.
The experiments were run as follows: 0.5μ of test compound in DMSO or 0.5 μl DMSO alone was added to reaction tubes. 0.5 ml aliquots of the stirred PMN suspension maintained at 37° C. were then added. After 2 minutes, 0.5 μl of 10 mM A23187 (final concentration=10 μM) or 0.5 μl of DMSO was added and allowed to incubate for 4 additional minutes at 37° C. The reaction was stopped by the addition of 0.5 ml of cold methanol. The precipitated proteins were removed by centrifugation and the supernatant fluid was analyzed via RIA or HPLC.
Radioimmunoassay determinations of LTB4
Radioimmunoassays were performed using the dextran-coated charcoal binding method as described by J. L. Humes in Methods for Studying Mononuclear Phagocytes (Eds. D. Adams et al.) p. 641, Academic Press, N.Y. (1981).
Aliquots, 2 μl, of the supernatant fluids were added to assay tubes and incubated for 10 minutes at 37° C. to remove methanol. Fifty μl of tissue culture medium M-199 containing 1 percent heat-inactivated-porcine serum was then added to each tube. Standard amounts of LTB4 were also prepared in this medium so that 50 μl aliquots contained 25-1000 pg. Antisera to LTB4 was diluted 1:3000 with 10 mM potassium phosphate, pH 7.3 containing 1 mM ethylenediaminetetracetic acid and 0.25 mM thimerasol (PET buffer). Aliquots, 100 μl, of the diluted antisera were added to both standard and unknown tubes and incubated at room temperature for 0.5 hour. (5,6,8,9,11,12,14,15-^3 H)-LTB4 (Amersham, 150 Ci/mMol) was diluted with PET to a concentration of 1 nCi/ml. Aliquots, 100 μl , were added and the mixture incubated for 2 hours at room temperature or alternatively overnight at 4° C. One ml of dextran-coated charcoal solution is added to all tubes. After centrifugation for 10 minutes at 1000×g the radioactivity in the supernatant fluid was determined.
The dextran-coated charcoal removes the unbound ^3 H-LTB4. Therefore in this procedure the antibody-bound-^3 H-LTB4 is measured. The RIA^4 determinations are performed on single samples.

Structure (SMILES) | inhibition at 300 µg/mL (dose 0.3 mg/ml) [%] | inhibition at 100 µg/mL (dose 0.1 mg/ml) [%] | inhibition at 37 µg/mL (dose 0.037 mg/ml) [%] | inhibition at 1000 µg/mL [%] | further results
COc1ccc(-c2sc3ccncc3c2O)cc1 [N=5, R=H, X1=H, X2=p-OCH3, 5-Aza-3-hydroxy-2-(4-methoxyphenyl)-benzo[b]thiophene] | 100 | – | – | – | inhibition at 400 µg/mL (dose 0.4 mg/ml): 63%
COc1cccc(-c2sc3ncccc3c2O)c1 [N=7, R=H, X1=H, X2=m-OCH3, 7-Aza-3-hydroxy-2-(3-methoxyphenyl)-benzo[b]thiophene] | 100 | 100 | – | – | inhibition at 30 µg/mL: 76%
COc1ccc(-c2sc3ncccc3c2O)cc1 [N=7, R=H, X1=H, X2=p-OCH3] | – | 100 | 24 | – | –
COc1ccc(-c2sc3ncccc3c2OC(C)=O)cc1 [N=7, R=(CO)CH3, X1=H, X2=p-OCH3] | – | 100 | 59 | – | % Inhibition (PMN 5-lipoxygenase) (dose 0.037 mg/ml): 70%
CC(=O)Oc1c(-c2ccc(F)cc2)sc2ncccc12 [N=7, R=(CO)CH3, X1=H, X2=p-F, 7-aza-3-acetyloxy-2-(4-fluorophenyl)-benzo[b]thiophene] | – | 100 | 49 | – | inhibition at 10 µg/mL: 24%
COc1ccc(-c2sc3cc(C)nc(C)c3c2OC(C)=O)cc1 | 75 | 45 | – | – | inhibition at 30 µg/mL: 4%
Oc1c(-c2cccnc2)sc2ncccc12 [drawing 24, N=7, R=H, X1=H, X2=H] | 94 | 39 | – | 98 | inhibition at 30 µg/mL: 0%
COc1ccc(-c2sc3cccnc3c2OC(C)=O)cc1 [N=4, R=(CO)CH3, X1=H, X2=p-OCH3, 3-Acetyloxy-2-(4-methoxyphenyl)-4-azabenzo[b]thiophene] | 73 | 21 | – | 100 | –
CC(=O)Oc1c(-c2ccc(C(F)(F)F)cc2)sc2ncccc12 [N=7, R=(CO)CH3, X1=H, X2=p-CF3] | 100 | 61 | – | 100 | –
CC(=O)Oc1c(-c2ccc(C#N)cc2)sc2ncccc12 [N=7, R=(CO)CH3, X1=H, X2=p-CN] | 100 | 77 | 39 | – | –
CC(C)(C)c1ccc2c(O)c(-c3ccccc3)sc2n1 [N=7, R=H, X1=t-Bu, X2=H, 6-(1,1-dimethylethyl)-3-hydroxy-2-phenyl-7-azabenzo[b]thiophene] | 98 | 53 | – | 98 | –
CC(=O)Oc1c(-c2ccccc2)sc2ncccc12 [N=7, R=(CO)CH3, X1=H, X2=H, 7-aza-3-acetyloxy-2-phenyl-benzo[b]thiophene] | – | 100 | 95 | – | inhibition at 10 µg/mL: 40%
CC(=O)Oc1c(-c2ccccc2)sc2nccc(Cl)c12 [N=7, R=(CO)CH3, X1=4-Cl, X2=H] | – | 32 | 22 | 100 | –
COc1ccc(-c2sc3ccncc3c2OC(C)=O)cc1 [N=5, R=(CO)CH3, X1=H, X2=p-OCH3, 3-Acetyloxy-5-aza-2-(4-methoxyphenyl)benzo[b]thiophene] | 99 | 80 | 22 | – | % Inhibition (PMN 5-lipoxygenase) (dose 0.1 mg/ml): 60%; % Inhibition (PMN 5-lipoxygenase) (dose 0.3 mg/ml): 100%
Oc1c(-c2ccccc2)sc2ncccc12 [N=7, R=H, X1=H, X2=H, 3-Hydroxy-2-phenyl-7-azabenzo[b]thiophene] | – | 100 | – | – | inhibition at 12 µg/mL (dose 0.012 mg/ml): 32%
Oc1c(-c2ccc(F)cc2)sc2ncccc12 [N=7, R=H, X1=H, X2=p-F] | 100 | 99 | 88 | – | inhibition at 10 µg/mL: 32%
CC(=O)Oc1c(-c2ccccc2)sc2nc(C(C)(C)C)ccc12 [N=7, R=(CO)CH3, X1=t-Bu, X2=H, 3-Acetoxy-6-(1,1-dimethylethyl)-2-phenyl-7-azabenzo[b]thiophene] | 70 | 34 | – | 95 | inhibition at 30 µg/mL: 23%
